# Results as given in patent US8691804B2 (Evotec AG, priority 2008, dated 2014).
# Target: T1, human H3 receptors (Homo sapiens, UniProt Q9Y5N1)
# T1 construct: host or cells: CHO-K1
# Assay: cAMP quantification assay for human H3 receptor testing
# Format: cell-based
# Settings: CHO-K1 cells expressing human H3 receptors; inhibition of agonist-induced decrease of cAMP; 100 nM histamine, 10 μM forskolin; read-out: Potency range (IC50 values)
# Outline: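 CHO-K1 cells expressing human H3 (10,000/well) were preincubated 30 min at 37 °C with compound in PBS containing 1 mM IBMX and 0.03% BSA. They were then challenged 30 min with agonist solution (100 nM histamine plus 10 μM forskolin). cAMP was quantified by enzyme-complementation luminescence, with 8 concentrations in triplicate at 1% DMSO.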
# T1 sequence (Q9Y5N1 whole entry): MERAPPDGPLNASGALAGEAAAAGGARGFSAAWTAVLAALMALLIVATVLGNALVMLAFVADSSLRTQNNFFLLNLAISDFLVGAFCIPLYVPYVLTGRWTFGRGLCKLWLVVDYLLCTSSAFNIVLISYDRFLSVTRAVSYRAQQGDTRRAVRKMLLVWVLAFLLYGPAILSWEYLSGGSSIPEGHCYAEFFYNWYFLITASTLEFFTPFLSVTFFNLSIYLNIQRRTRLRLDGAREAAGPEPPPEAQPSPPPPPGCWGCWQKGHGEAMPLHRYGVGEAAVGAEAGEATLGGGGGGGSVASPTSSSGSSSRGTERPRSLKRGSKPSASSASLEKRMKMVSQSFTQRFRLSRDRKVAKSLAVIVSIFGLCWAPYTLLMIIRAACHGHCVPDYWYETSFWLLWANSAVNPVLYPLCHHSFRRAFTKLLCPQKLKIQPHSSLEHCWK
row,IC50,SMILES
1,< 100 nM,"N#Cc1ccc(O[C@H]2C[C@H](C(=O)N3CCCN(C4CCC4)CC3)C2)cc1 [Example 106, 4-({trans-3-[(4-cyclobutyl-1,4-diazepan-1-yl)carbonyl]cyclobutyl}oxy)benzonitrile]"
2,< 100 nM,"O=C([C@H]1C[C@H](Oc2ccc(C(F)(F)F)cn2)C1)N1CCCN(C2CCC2)CC1 [Example 107, 1-cyclobutyl-4-[(trans-3-{[5-(trifluoromethyl)pyridin-2-yl]oxy}cyclobutyl)carbonyl]-1,4-diazepane]"
3,< 100 nM,"O=C1CN(C(=O)N2CCCN(C3CCC3)CC2)C1 [Example 108, 1-[(4-cyclobutyl-1,4-diazepan-1-yl)carbonyl]azetidin-3-one]"
4,< 100 nM,"NC1CN(C(=O)N2CCCN(C3CCC3)CC2)C1 [Example 109, 1-[(4-cyclobutyl-1,4-diazepan-1-yl)carbonyl]azetidin-3-amine]"
5,< 100 nM,"CNC(=O)c1ccc(NC2CN(C(=O)N3CCCN(C4CCC4)CC3)C2)cn1 [Example 110, 5-({1-[(4-cyclobutyl-1,4-diazepan-1-yl)carbonyl]azetidin-3-yl}amino)-N-methylpyridine-2-carboxamide]"
6,< 100 nM,"CNC(=O)c1ccc(N(C)C2CN(C(=O)N3CCCN(C4CCC4)CC3)C2)cn1 [Example 111, 5-[{1-[(4-cyclobutyl-1,4-diazepan-1-yl)carbonyl]azetidin-3-yl}(methyl)amino]-N-methylpyridine-2-carboxamide]"
7,< 100 nM,"N#Cc1ccc(CNC2CN(C(=O)N3CCCN(C4CCC4)CC3)C2)cc1 [Example 112, 4-[({1-[(4-cyclobutyl-1,4-diazepan-1-yl)carbonyl]azetidin-3-yl}amino)methyl]benzonitrile]"
8,500 to 5000 nM,"CNC(=O)c1ccc(OC2CN(C(=O)N3CCCN(C)CC3)C2)cn1 [Example 113, 5-({1-[(4-methyl-1,4-diazepan-1-yl)carbonyl]azetidin-3-yl}oxy)-N-methylpyridine-2-carboxamide]"
9,< 100 nM,"CNC(=O)c1ccc(OC2CN(C(=O)N3CCCN(C(C)C)CC3)C2)cn1 [Example 114, 5-({1-[(4-(1-methylethyl)-1,4-diazepan-1-yl)carbonyl]azetidin-3-yl}oxy)-N-methylpyridine-2-carboxamide]"
10,< 100 nM,"CNC(=O)c1ccc(OC2CN(C(=O)N3CCCN(C4CCCC4)CC3)C2)cn1 [Example 115, 5-({1-[(4-cyclopentyl-1,4-diazepan-1-yl)carbonyl]azetidin-3-yl}oxy)-N-methylpyridine-2-carboxamide]"
11,< 100 nM,"O=C1NCCc2cc(OC3CN(C(=O)N4CCCN(C5CCC5)CC4)C3)ccc21 [Example 116, 6-({1-[(4-cyclobutyl-1,4-diazepan-1-yl)carbonyl]azetidin-3-yl}oxy)-3,4-dihydroisoquinolin-1(2H)-one]"
12,< 100 nM,"CN1CCc2cc(OC3CN(C(=O)N4CCCN(C5CCC5)CC4)C3)ccc2C1=O [Example 117, 6-({1-[(4-cyclobutyl-1,4-diazepan-1-yl)carbonyl]azetidin-3-yl}oxy)-2-methyl-3,4-dihydroisoquinolin-1(2H)-one]"
13,< 100 nM,"CC(C)(O)c1ccc(OC2CN(C(=O)N3CCCN(C4CCC4)CC3)C2)cn1 [Example 118, 2-[5-({1-[(4-cyclobutyl-1,4-diazepan-1-yl)carbonyl]azetidin-3-yl}oxy)pyridin-2-yl]propan-2-ol]"
14,< 100 nM,"CC(=O)c1ccc(OC2CN(C(=O)N3CCCN(C4CCC4)CC3)C2)cn1 [Example 119, 1-[5-({1-[(4-cyclobutyl-1,4-diazepan-1-yl)carbonyl]azetidin-3-yl}oxy)pyridin-2-yl]ethanone]"
15,< 100 nM,"COc1cnc(OC2CN(C(=O)N3CCCN(C4CCC4)CC3)C2)nc1 [Example 120, 1-cyclobutyl-4-({3-[(5-methoxypyrimidin-2-yl)oxy]azetidin-1-yl}carbonyl)-1,4-diazepane]"
16,< 100 nM,"Cc1ccc(OC2CN(C(=O)N3CCCN(C4CCC4)CC3)C2)cn1 [Example 121, 1-cyclobutyl-4-({3-[(6-methylpyridin-3-yl)oxy]azetidin-1-yl}carbonyl)-1,4-diazepane]"
17,< 100 nM,"COC(=O)C1CN(C(=O)N2CCCN(C3CCC3)CC2)C1 [Example 122, methyl 1-[(4-cyclobutyl-1,4-diazepan-1-yl)carbonyl]azetidine-3-carboxylate]"
18,< 100 nM,"O=C(Nc1ccc(Cl)cc1)C1CN(C(=O)N2CCCN(C3CCC3)CC2)C1 [Example 123, N-(4-chlorophenyl)-1-[(4-cyclobutyl-1,4-diazepan-1-yl)carbonyl]azetidine-3-carboxamide]"
19,< 100 nM,"O=C(C1CN(C(=O)N2CCCN(C3CCC3)CC2)C1)N1CCCCC1 [Example 124, 1-cyclobutyl-4-{[3-(piperidin-1-ylcarbonyl)azetidin-1-yl]carbonyl}-1,4-diazepane]"
20,< 100 nM,"O=C(C1CN(C(=O)N2CCCN(C3CCC3)CC2)C1)N1CCOCC1 [Example 125, 1-cyclobutyl-4-{[3-(morpholin-4-ylcarbonyl)azetidin-1-yl]carbonyl}-1,4-diazepane]"
21,< 100 nM,"O=C(C1CN(C(=O)N2CCCN(C3CCC3)CC2)C1)N1CCC1 [Example 126, 1-{[3-(azetidin-1-ylcarbonyl)azetidin-1-yl]carbonyl}-4-cyclobutyl-1,4-diazepane]"
22,< 100 nM,"O=C(C1CN(C(=O)N2CCCN(C3CCC3)CC2)C1)N1CCCC1 [Example 127, 1-cyclobutyl-4-{[3-(pyrrolidin-1-ylcarbonyl)azetidin-1-yl]carbonyl}-1,4-diazepane]"
23,< 100 nM,"O=C(C1CN(C(=O)N2CCCN(C3CCC3)CC2)C1)N1CCCCCC1 [Example 128, 1-{[3-(azepan-1-ylcarbonyl)azetidin-1-yl]carbonyl}-4-cyclobutyl-1,4-diazepane]"
24,< 100 nM,"O=C(C1CN(C(=O)N2CCCN(C3CCC3)CC2)C1)N1CCC(F)CC1 [Example 129, 1-cyclobutyl-4-({3-[(4-fluoropiperidin-1-yl)carbonyl]azetidin-1-yl}carbonyl)-1,4-diazepane]"
25,< 100 nM,"O=C(C1CN(C(=O)N2CCCN(C3CCC3)CC2)C1)N1CCC(F)(F)CC1 [Example 130, 1-cyclobutyl-4-({3-[(4,4-difluoropiperidin-1-yl)carbonyl]azetidin-1-yl}carbonyl)-1,4-diazepane]"
26,< 100 nM,"O=C(NC1CCCCC1)C1CN(C(=O)N2CCCN(C3CCC3)CC2)C1 [Example 131, 1-[(4-cyclobutyl-1,4-diazepan-1-yl)carbonyl]-N-cyclohexylazetidine-3-carboxamide]"
27,< 100 nM,"Cc1ccc(NC(=O)C2CN(C(=O)N3CCCN(C4CCC4)CC3)C2)cn1 [Example 132, 1-[(4-cyclobutyl-1,4-diazepan-1-yl)carbonyl]-N-(6-methylpyridin-3-yl)azetidine-3-carboxamide]"
28,100 to 500 nM,"CNC(=O)C1CN(C(=O)N2CCCN(C3CCC3)CC2)C1 [Example 133, 1-[(4-cyclobutyl-1,4-diazepan-1-yl)carbonyl]-N-methylazetidine-3-carboxamide]"
29,< 100 nM,"O=C(N1CCCN(C2CCC2)CC1)N1CC(CO)C1 [Example 134, {1-[(4-cyclobutyl-1,4-diazepan-1-yl)carbonyl]azetidin-3-yl}methanol]"
30,< 100 nM,"O=C(N1CCCN(C2CCC2)CC1)N1CC(COc2ccc(Cl)cc2)C1 [Example 135, 1-({3-[(4-chlorophenoxy)methyl]azetidin-1-yl}carbonyl)-4-cyclobutyl-1,4-diazepane]"
